Test results as given in the supplement of paper PMC11451515.

System: SEM cells
Experiment: cell viability relative to DMSO control; higher = less cytotoxic
Conditions: 48 h
Summary of the method: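 Viability values are per-plate percentages of DMSO wells, with background from cell-free wells. Library compounds in DMSO were pin-dosed, in an 11-point threefold series from 47 μM to 0.79 nM, onto NOMO1 or SEM (500 cells/well) or P12-Ichikawa (1000 cells/well) leukemia cells in 1536-well plates (5 μl). Those cells had been adapted for at least four passages in each medium, and CellTiter-Glo One luminescence was read after 48 h at 37°C.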

[1] = HPLM + 10% dialyzed FBS, 0.000781 µM
[2] = HPLM + 10% dialyzed FBS, 0.00234 µM
[3] = HPLM + 10% dialyzed FBS, 0.00702 µM
[4] = HPLM + 10% dialyzed FBS, 0.0211 µM
[5] = HPLM + 10% dialyzed FBS, 0.0632 µM
[6] = HPLM + 10% dialyzed FBS, 0.19 µM
[7] = HPLM + 10% dialyzed FBS, 0.569 µM
[8] = HPLM + 10% dialyzed FBS, 1.71 µM
[9] = HPLM + 10% dialyzed FBS, 5.12 µM
[10] = HPLM + 10% dialyzed FBS, 15.4 µM
[11] = HPLM + 10% dialyzed FBS, 46.1 µM
[12] = RPMI 5 mM glucose + 10% FBS, 0.000781 µM
[13] = RPMI 5 mM glucose + 10% FBS, 0.00234 µM
[14] = RPMI 5 mM glucose + 10% FBS, 0.00702 µM
[15] = RPMI 5 mM glucose + 10% FBS, 0.0211 µM
[16] = RPMI 5 mM glucose + 10% FBS, 0.0632 µM
[17] = RPMI 5 mM glucose + 10% FBS, 0.19 µM
[18] = RPMI 5 mM glucose + 10% FBS, 0.569 µM
[19] = RPMI 5 mM glucose + 10% FBS, 1.71 µM
[20] = RPMI 5 mM glucose + 10% FBS, 5.12 µM
[21] = RPMI 5 mM glucose + 10% FBS, 15.4 µM
[22] = RPMI 5 mM glucose + 10% FBS, 46.1 µM
[23] = RPMI 5 mM glucose + 10% dialyzed FBS, 0.000781 µM
[24] = RPMI 5 mM glucose + 10% dialyzed FBS, 0.00234 µM
[25] = RPMI 5 mM glucose + 10% dialyzed FBS, 0.00702 µM
[26] = RPMI 5 mM glucose + 10% dialyzed FBS, 0.0211 µM
[27] = RPMI 5 mM glucose + 10% dialyzed FBS, 0.0632 µM
[28] = RPMI 5 mM glucose + 10% dialyzed FBS, 0.19 µM
[29] = RPMI 5 mM glucose + 10% dialyzed FBS, 0.569 µM
[30] = RPMI 5 mM glucose + 10% dialyzed FBS, 1.71 µM
[31] = RPMI 5 mM glucose + 10% dialyzed FBS, 5.12 µM
[32] = RPMI 5 mM glucose + 10% dialyzed FBS, 15.4 µM
[33] = RPMI 5 mM glucose + 10% dialyzed FBS, 46.1 µM

COCCCN1CCC(NC(=O)c2cc(Cl)c(N)c3c2OCC3)CC1
cell viability [1]: 86.8%
cell viability [2]: 90.1%
cell viability [3]: 115%
cell viability [4]: 116%
cell viability [5]: 129%
cell viability [6]: 123%
cell viability [7]: 114%
cell viability [8]: 119%
cell viability [9]: 147%
cell viability [10]: 123%
cell viability [11]: 114%
cell viability [12]: 110%
cell viability [13]: 115%
cell viability [14]: 116%
cell viability [15]: 122%
cell viability [16]: 149%
cell viability [17]: 134%
cell viability [18]: 130%
cell viability [19]: 114%
cell viability [20]: 147%
cell viability [21]: 140%
cell viability [22]: 111%
cell viability [23]: 118%
cell viability [24]: 119%
cell viability [25]: 127%
cell viability [26]: 114%
cell viability [27]: 130%
cell viability [28]: 143%
cell viability [29]: 116%
cell viability [30]: 156%
cell viability [31]: 128%
cell viability [32]: 143%
cell viability [33]: 113%

CCn1c(-c2nonc2N)nc2cnc(Oc3cccc(NC(=O)c4ccc(OCCN5CCOCC5)cc4)c3)cc21
cell viability [1]: 93.1%
cell viability [2]: 106%
cell viability [3]: 102%
cell viability [4]: 98.7%
cell viability [5]: 111%
cell viability [6]: 114%
cell viability [7]: 113%
cell viability [8]: 111%
cell viability [9]: 102%
cell viability [10]: 82.2%
cell viability [11]: 70.3%
cell viability [12]: 102%
cell viability [13]: 102%
cell viability [14]: 108%
cell viability [15]: 119%
cell viability [16]: 122%
cell viability [17]: 100%
cell viability [18]: 102%
cell viability [19]: 111%
cell viability [20]: 93.4%
cell viability [21]: 71.9%
cell viability [22]: 54.5%
cell viability [23]: 124%
cell viability [24]: 111%
cell viability [25]: 105%
cell viability [26]: 113%
cell viability [27]: 108%
cell viability [28]: 102%
cell viability [29]: 92.2%
cell viability [30]: 116%
cell viability [31]: 106%
cell viability [32]: 86.6%
cell viability [33]: 59.7%

FC1=CC=C(SC/2=N/N3\C=N/C(=O)/C(=C3/C=C2)C4=C(Cl)C=CC=C4Cl)C(=C1)F
cell viability [1]: 79%
cell viability [2]: 85.9%
cell viability [3]: 89.7%
cell viability [4]: 91.1%
cell viability [5]: 92%
cell viability [6]: 88.1%
cell viability [7]: 98.5%
cell viability [8]: 89.7%
cell viability [9]: 88.1%
cell viability [10]: 76.7%
cell viability [11]: 44.9%
cell viability [12]: 97.5%
cell viability [13]: 104%
cell viability [14]: 106%
cell viability [15]: 101%
cell viability [16]: 108%
cell viability [17]: 101%
cell viability [18]: 102%
cell viability [19]: 112%
cell viability [20]: 93.8%
cell viability [21]: 62.9%
cell viability [22]: 20.1%
cell viability [23]: 91.7%
cell viability [24]: 78.6%
cell viability [25]: 95.7%
cell viability [26]: 93.4%
cell viability [27]: 103%
cell viability [28]: 87.5%
cell viability [29]: 83.3%
cell viability [30]: 79.3%
cell viability [31]: 77.2%
cell viability [32]: 73.4%
cell viability [33]: 33.6%

CCC(C)(C)c1ccc(CC(C)CN2C[C@@H](C)O[C@@H](C)C2)cc1 (stereo partly drawn)
cell viability [1]: 69%
cell viability [2]: 62.1%
cell viability [3]: 88.1%
cell viability [4]: 87.3%
cell viability [5]: 72.2%
cell viability [6]: 64.7%
cell viability [7]: 74.7%
cell viability [8]: 75.5%
cell viability [9]: 84.1%
cell viability [10]: 67.8%
cell viability [11]: 74.3%
cell viability [12]: 80%
cell viability [13]: 67.6%
cell viability [14]: 87.1%
cell viability [15]: 79.9%
cell viability [16]: 89.4%
cell viability [17]: 36.3%
cell viability [18]: 91.8%
cell viability [19]: 86.6%
cell viability [20]: 84.5%
cell viability [21]: 71.9%
cell viability [22]: 76.8%
cell viability [23]: 71%
cell viability [24]: 67.1%
cell viability [25]: 94.5%
cell viability [26]: 91.7%
cell viability [27]: 83.4%
cell viability [28]: 78.6%
cell viability [29]: 114%
cell viability [30]: 82.9%
cell viability [31]: 89.7%
cell viability [32]: 67.9%
cell viability [33]: 78%

CC[C@H](C)[N]1C=C(C)C2=C1C=C(C=C2C(=O)NC\C3=C(C)\C=C(\C)NC3=O)C4=CC=C(N=C4)N5CCNCC5
cell viability [1]: 106%
cell viability [2]: 104%
cell viability [3]: 112%
cell viability [4]: 117%
cell viability [5]: 114%
cell viability [6]: 106%
cell viability [7]: 112%
cell viability [8]: 117%
cell viability [9]: 113%
cell viability [10]: 113%
cell viability [11]: 99%
cell viability [12]: 83.5%
cell viability [13]: 105%
cell viability [14]: 108%
cell viability [15]: 102%
cell viability [16]: 113%
cell viability [17]: 108%
cell viability [18]: 99%
cell viability [19]: 109%
cell viability [20]: 96.5%
cell viability [21]: 95%
cell viability [22]: 101%
cell viability [23]: 101%
cell viability [24]: 120%
cell viability [25]: 115%
cell viability [26]: 108%
cell viability [27]: 110%
cell viability [28]: 103%
cell viability [29]: 107%
cell viability [30]: 100%
cell viability [31]: 107%
cell viability [32]: 116%
cell viability [33]: 104%

CC(C)C(=O)Oc1ccc(CO)cc1[C@H](CCN(C(C)C)C(C)C)c1ccccc1
cell viability [1]: 34.1%
cell viability [2]: 81.6%
cell viability [3]: 97.9%
cell viability [4]: 80.4%
cell viability [5]: 74.6%
cell viability [6]: 83.3%
cell viability [7]: 82.8%
cell viability [8]: 81%
cell viability [9]: 82.3%
cell viability [10]: 76.2%
cell viability [11]: 72.4%
cell viability [12]: 32.5%
cell viability [13]: 92.1%
cell viability [14]: 91.8%
cell viability [15]: 99.3%
cell viability [16]: 74.4%
cell viability [17]: 92.5%
cell viability [18]: 81.7%
cell viability [19]: 67.5%
cell viability [20]: 101%
cell viability [21]: 80.3%
cell viability [22]: 89.5%
cell viability [23]: 35.5%
cell viability [24]: 91.9%
cell viability [25]: 92.2%
cell viability [26]: 95.3%
cell viability [27]: 74.9%
cell viability [28]: 89.4%
cell viability [29]: 97.8%
cell viability [30]: 85.7%
cell viability [31]: 114%
cell viability [32]: 96.2%
cell viability [33]: 99.8%
